{"source": "paper PMC9299836", "about": "(eLife, 2022)", "key": {"mGluR2 [1]": {"target": "mGluR2 (Mus musculus, UniProt Q14BI2, INS715F)", "sequence (Q14BI2 with tags, fused parts or gaps INS715F)": "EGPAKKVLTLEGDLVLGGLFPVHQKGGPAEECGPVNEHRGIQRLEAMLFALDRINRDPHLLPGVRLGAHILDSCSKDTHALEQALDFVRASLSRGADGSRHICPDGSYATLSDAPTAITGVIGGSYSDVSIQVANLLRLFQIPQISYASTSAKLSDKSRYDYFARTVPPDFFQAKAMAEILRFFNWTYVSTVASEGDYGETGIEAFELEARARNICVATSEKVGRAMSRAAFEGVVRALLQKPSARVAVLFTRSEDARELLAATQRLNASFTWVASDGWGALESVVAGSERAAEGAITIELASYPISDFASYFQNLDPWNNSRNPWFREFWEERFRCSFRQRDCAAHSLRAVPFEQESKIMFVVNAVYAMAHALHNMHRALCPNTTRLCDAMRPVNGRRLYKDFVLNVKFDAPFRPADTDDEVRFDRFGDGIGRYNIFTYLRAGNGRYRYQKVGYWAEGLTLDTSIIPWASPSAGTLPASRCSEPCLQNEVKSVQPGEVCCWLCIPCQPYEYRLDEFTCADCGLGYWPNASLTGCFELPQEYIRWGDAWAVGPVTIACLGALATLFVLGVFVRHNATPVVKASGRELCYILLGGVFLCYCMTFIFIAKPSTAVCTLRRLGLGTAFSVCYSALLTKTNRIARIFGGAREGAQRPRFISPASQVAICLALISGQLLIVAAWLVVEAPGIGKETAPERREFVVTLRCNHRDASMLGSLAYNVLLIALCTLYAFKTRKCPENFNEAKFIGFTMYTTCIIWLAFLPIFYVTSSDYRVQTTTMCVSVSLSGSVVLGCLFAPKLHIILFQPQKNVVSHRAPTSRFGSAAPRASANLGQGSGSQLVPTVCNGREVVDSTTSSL", "assay": "Live-cell FRET, azi-ECL2 (7TM domain, extracellular loop 2) sensor in HEK293T cells;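 note: Cy3/Cy5 click-labeled sensor, whole-membrane ROIs per cell, apparent FRET after bleed-through correction, ΔFRET as treatment minus pre-treatment signal, at room temperature, at least three biological replicates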", "settings": "for Mean normalized azi-ECL2 FRET response: glutamate + 10μM modulator, maximal response normalized to 1mM glutamate"}, "mGluR2 [2]": {"target": "mGluR2 (Mus musculus, UniProt Q14BI2, A548F)", "sequence (Q14BI2 19-872 A548F)": "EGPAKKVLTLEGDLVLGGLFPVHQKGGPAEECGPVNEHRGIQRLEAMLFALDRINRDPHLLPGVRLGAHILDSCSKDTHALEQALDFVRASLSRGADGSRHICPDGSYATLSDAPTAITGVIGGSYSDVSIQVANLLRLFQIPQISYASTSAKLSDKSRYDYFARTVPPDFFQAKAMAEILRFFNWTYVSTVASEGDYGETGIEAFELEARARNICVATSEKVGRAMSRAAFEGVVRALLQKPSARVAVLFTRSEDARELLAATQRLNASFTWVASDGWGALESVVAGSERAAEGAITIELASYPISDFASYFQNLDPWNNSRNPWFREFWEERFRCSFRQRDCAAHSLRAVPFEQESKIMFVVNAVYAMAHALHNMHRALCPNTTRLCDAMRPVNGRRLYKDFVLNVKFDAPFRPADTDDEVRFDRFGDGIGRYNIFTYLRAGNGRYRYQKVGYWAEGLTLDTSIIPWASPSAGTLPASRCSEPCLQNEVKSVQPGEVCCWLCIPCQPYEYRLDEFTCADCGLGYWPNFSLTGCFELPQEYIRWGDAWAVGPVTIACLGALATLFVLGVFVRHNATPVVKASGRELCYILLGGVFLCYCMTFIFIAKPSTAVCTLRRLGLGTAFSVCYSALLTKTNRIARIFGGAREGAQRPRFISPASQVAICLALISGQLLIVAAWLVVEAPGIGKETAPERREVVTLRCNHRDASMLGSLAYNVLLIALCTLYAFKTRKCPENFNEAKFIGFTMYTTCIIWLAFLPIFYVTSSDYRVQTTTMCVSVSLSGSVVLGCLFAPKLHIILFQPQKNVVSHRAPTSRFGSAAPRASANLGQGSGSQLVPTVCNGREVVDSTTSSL", "assay": "Single-molecule FRET (SiMPull) of azi-CRD: population histograms and state occupancy;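 note: Cy3/Cy5-labelled receptor from HEK293T cell lysate captured on anti-FLAG surfaces, apparent FRET efficiency computed from donor and acceptor intensities with crosstalk correction, pooled into population histograms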", "settings": "azi-CRD, 10 μM modulator, fraction of total area"}, "mGluR2 [3]": {"target": "mGluR2 (Mus musculus, UniProt Q14BI2)", "sequence (Q14BI2 19-872)": "as the sequence (Q14BI2 19-872 A548F) above, with F530A counted along it", "assay": "Functional calcium imaging, SNAP-mGluR2 (no FLAG-tag) with chimeric G protein Gqo5 in HEK293T cells", "assay_type": "cell-based", "parameters": "Full length mGluR2 construct with an amber codon (TAG) mutation of amino acid A548 (azi-CRD) or N-terminal SNAP-tag (SNAP-mGluR2); host or cells: HEK293T", "settings": "for Intracellular Ca2+ Response (normalized to 1mM glutamate), Mean: Glutamate + 1μM BINA"}}, "note": "“And” between values parts separate entries of the source, which are not always exact repeats. Equal values may be shown once.", "data": [{"smiles": "Cc1c(OCc2cccc(-c3ccc(C(=O)O)cc3)c2)cc2c(c1C)C(=O)C(C1CCCC1)C2", "note": "(stereo not shown) [BINA]", "values": [{"measurement": "azi-ECL2 - ΔEfficacy, Mean ΔEfficacy", "setting": "mGluR2 [1]; 10μM BINA, ([1 mM glutamate + modulator] - [1 mM glutamate]) × 100", "value": 42.1338}, {"measurement": "Mean ΔPotency", "setting": "mGluR2 [1]; 10μM modulator, (([modulator + glutamate]EC50 – [glutamate] EC50)/[glutamate] EC50) × 100", "value": -51.0252}, {"measurement": "ΔPotency, individual cell responses", "setting": "mGluR2 [1]; 10μM modulator, single cells, (([modulator + glutamate]EC50 – [glutamate] EC50)/[glutamate] EC50) × 100", "value": "-59.4349 and -64.4751 and -43.9117 and -59.7874 and -53.4508 and -10.4259 and -42.6395 and -39.4154 and -48.6344 and -48.1424 and -33.877 and -32.3399 and -71.1589 and -70.5942 and -70.1728 and -67.9438"}, {"measurement": "ΔEfficacy, individual cell responses", "setting": "mGluR2 [1]; 10μM modulator, single cells, ([1 mM glutamate + modulator] - [1 mM glutamate]) × 100", "value": "29.3333 and 34.3873 and 67.0103 and 45.1311 and 54.8496 and 47.8253 and 100.958 and 52.7779 and 75.0355 and 26.9064 and 8.621 and 25.7313 and 7.026 and 14.2809"}, {"measurement": "Mean max response (normalized max ΔFRET)", "setting": "mGluR2 [1]; azi-ECL2, 1 mM glutamate + 10 μM modulator, normalized to 1 mM glutamate", "value": 1.42}, {"measurement": "Hill slope of glutamate titration", "setting": "mGluR2 [1]; azi-ECL2 sensor, + 10 μM modulator", "value": 1.06}, {"measurement": "Mean normalized azi-ECL2 FRET response", "setting": "mGluR2 [1]; log[Glutamate] (M) -3", "value": 1.421}, {"measurement": "Mean normalized azi-ECL2 FRET response", "setting": "mGluR2 [1]; log[Glutamate] (M) -4.1549", "value": 1.469}, {"measurement": "Mean normalized azi-ECL2 FRET response", "setting": "mGluR2 [1]; log[Glutamate] (M) -4.52288", "value": 1.344}, {"measurement": "Mean normalized azi-ECL2 FRET response", "setting": "mGluR2 [1]; log[Glutamate] (M) -5", "value": 1.155}, {"measurement": "Mean normalized azi-ECL2 FRET response", "setting": "mGluR2 [1]; log[Glutamate] (M) -5.39794", "value": 0.8858}, {"measurement": "Mean normalized azi-ECL2 FRET response", "setting": "mGluR2 [1]; log[Glutamate] (M) -5.82391", "value": 0.584}, {"measurement": "Mean normalized azi-ECL2 FRET response", "setting": "mGluR2 [1]; log[Glutamate] (M) -6.52288", "value": 0.1491}, {"measurement": "Mean normalized azi-ECL2 FRET response", "setting": "mGluR2 [1]; log[Glutamate] (M) -7", "value": 0.03109}, {"measurement": "Mean normalized azi-ECL2 FRET response", "setting": "mGluR2 [1]; log[Glutamate] (M) -7.30103", "value": 0.00416}, {"measurement": "Mean normalized azi-ECL2 FRET response", "setting": "mGluR2 [1]; log[Glutamate] (M) -7.69897", "value": 0}, {"measurement": "Mean occupancy, state 1 (inactive, FRET 0.24)", "setting": "mGluR2 [2]; 0 μM glutamate", "value": 0.3053}, {"measurement": "Mean occupancy, state 2 (intermediate 1, FRET 0.38)", "setting": "mGluR2 [2]; 0 μM glutamate", "value": 0.5199}, {"measurement": "Mean occupancy, state 3 (intermediate 2, FRET 0.70)", "setting": "mGluR2 [2]; 0 μM glutamate", "value": 0.1483}, {"measurement": "Mean occupancy, state 4 (active, FRET 0.87)", "setting": "mGluR2 [2]; 0 μM glutamate", "value": 0.02653}, {"measurement": "Mean occupancy, state 1 (inactive, FRET 0.24)", "setting": "mGluR2 [2]; 1000 μM glutamate", "value": 0.00296}, {"measurement": "Mean occupancy, state 2 (intermediate 1, FRET 0.38)", "setting": "mGluR2 [2]; 1000 μM glutamate", "value": 0.03751}, {"measurement": "Mean occupancy, state 3 (intermediate 2, FRET 0.70)", "setting": "mGluR2 [2]; 1000 μM glutamate", "value": 0.2179}, {"measurement": "Mean occupancy, state 4 (active, FRET 0.87)", "setting": "mGluR2 [2]; 1000 μM glutamate", "value": 0.7416}, {"measurement": "Intracellular Ca2+ Response, % 1mM Glutamate", "setting": "mGluR2 [3]; 1mM Glutamate + 1uM BINA, individual experiments", "value": "150.888% and 116.9% and 139.124%"}, {"measurement": "Mean ΔEfficacy of glutamate", "setting": "mGluR2 [3]; Ca2+ response, 1 mM glutamate + 1 μM modulator, ([1 mM glutamate + modulator] - [1 mM glutamate]) × 100", "value": 35.6375}, {"measurement": "ΔEfficacy of glutamate, individual experiments", "setting": "mGluR2 [3]; Ca2+ response, 1 mM glutamate + 1 μM modulator, single replicate", "value": "16.9004 and 39.1239 and 50.8883"}, {"measurement": "Mean ΔPotency of glutamate", "setting": "mGluR2 [3]; Ca2+ response, glutamate + 1 μM modulator, (([modulator + glutamate]EC50 – [glutamate]EC50)/[glutamate]EC50) × 100", "value": -89.8956}, {"measurement": "ΔPotency of glutamate, individual experiments", "setting": "mGluR2 [3]; Ca2+ response, glutamate + 1 μM modulator, single replicate", "value": "-90.1258 and -89.6956 and -89.8653"}, {"measurement": "Intracellular Ca2+ Response (normalized to 1mM glutamate), Mean", "setting": "mGluR2 [3]; log[Glutamate] (M) -3", "value": 1.356}, {"measurement": "Intracellular Ca2+ Response (normalized to 1mM glutamate), Mean", "setting": "mGluR2 [3]; log[Glutamate] (M) -3.60206", "value": 1.413}, {"measurement": "Intracellular Ca2+ Response (normalized to 1mM glutamate), Mean", "setting": "mGluR2 [3]; log[Glutamate] (M) -4.1549", "value": 1.344}, {"measurement": "Intracellular Ca2+ Response (normalized to 1mM glutamate), Mean", "setting": "mGluR2 [3]; log[Glutamate] (M) -4.52288", "value": 1.309}, {"measurement": "Intracellular Ca2+ Response (normalized to 1mM glutamate), Mean", "setting": "mGluR2 [3]; log[Glutamate] (M) -5", "value": 1.259}, {"measurement": "Intracellular Ca2+ Response (normalized to 1mM glutamate), Mean", "setting": "mGluR2 [3]; log[Glutamate] (M) -5.39794", "value": 1.0353}, {"measurement": "Intracellular Ca2+ Response (normalized to 1mM glutamate), Mean", "setting": "mGluR2 [3]; log[Glutamate] (M) -5.82391", "value": 0.6392}, {"measurement": "Intracellular Ca2+ Response (normalized to 1mM glutamate), Mean", "setting": "mGluR2 [3]; log[Glutamate] (M) -6.52288", "value": 0.1098}, {"measurement": "Intracellular Ca2+ Response (normalized to 1mM glutamate), Mean", "setting": "mGluR2 [3]; log[Glutamate] (M) -7", "value": 0}, {"measurement": "Intracellular Ca2+ Response (normalized to 1mM glutamate), Mean", "setting": "mGluR2 [3]; log[Glutamate] (M) -7.30103", "value": 0}, {"measurement": "Intracellular Ca2+ Response (normalized to 1mM glutamate), Mean", "setting": "mGluR2 [3]; log[Glutamate] (M) -7.69897", "value": 0}]}]}
